Common to all, as to format: in vivo
Experiment [1] relates to Yellow Fever Mosquito (Aedes aegypti, AEDSAE). The experiment in a line: Bioassay on Yellow Fever Mosquito (YFM), 96-well plate larval assay. Conditions: for YFM (Biological Results, rating): Species YFM (Yellow Fever Mosquito); for YFM rating: Yellow Fever Mosquito, 96-well plate larval assay. The method, boiled down: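 Compound stocks at 4000 ppm in DMSO were diluted with 90:10 water/acetone, and 15 μL aliquots were dispensed into six replicate plates. About 1-day-old larvae in liver-powder water were added per well. Plates were covered and held at room temperature for 3 days before each well was scored for mortality.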

Experiment [2] deals with Cabbage Looper (Trichoplusia ni, TRIPNI). Description: Bioassay on Cabbage Looper (CL), 128-well diet tray assay. Conditions: Trichoplusia ni. The gist of the method:
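Second-instar larvae, one to five per well, were placed on artificial diet surface-treated with 50 μg/cm^2 test molecule applied in 90:10 acetone-water and dried, eight wells per molecule. Trays were covered, vented and held at 25° C., 14:10 light-dark for five to seven days; percent mortality per well was averaged.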

Experiment [3] has as its system Beet Armyworm (Spodoptera exigua, LAPHEG). Description: Bioassay on Beet Armyworm (BAW), 128-well diet tray assay. The method, boiled down:
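Second instar larvae were exposed to diet treated at 50 μg/cm^2 for five to seven days at 25° C.; mortality was averaged over eight wells.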

The mark [4] stands for this setting: Species CL (Cabbage Looper), read-out: CL (Biological Results, rating).
Setting [5] is: Species BAW (Beet Armyworm), read-out: BAW (Biological Results, rating).
Where [6] appears, read: Cabbage Looper, 128-well diet tray assay, read-out: CL rating.
Setting [7] is: Beet Armyworm, 128-well diet tray assay, read-out: BAW rating.

Read-outs that look alike come from different tables or passages of the source.

In the case of `Nc1cccc(NC(=O)c2cc(NC(=O)[C@H]3[C@H](c4cc(Cl)cc(Cl)c4)C3(Cl)Cl)ccc2Cl)n1` (relative stereo) [F326, trans-N-(6-aminopyridin-2-yl)-2-chloro-5-(2,2-dichloro-3-(3,5-dichlorophenyl)cyclopropane-1-carboxamido)benzamide], the “YFM (Biological Results, rating)” value in experiment [1] is recorded as “A (80-100)”. For the same compound, the pest or weed control at 50 µg/cm2 in experiment [2] (setting [4]) and in experiment [3] (setting [5]) was 50 to 100% in each case.
In the case of `N#Cc1cc(F)ccc1NC(=O)c1cccc(NC(=O)[C@H]2[C@H](c3cc(Cl)c(Cl)c(Cl)c3)C2(Cl)Cl)c1` (relative stereo) [F267, trans-N-(2-cyano-4-fluorophenyl)-3-(2,2-dichloro-3-(3,4,5-trichlorophenyl)cyclopropane-1-carboxamido)benzamide], the “YFM (Biological Results, rating)” value in experiment [1] is given as “B (More than 0-Less than 80)”. In addition, the pest or weed control at 50 µg/cm2 in experiment [2] (setting [4]) and in experiment [3] (setting [5]) was 50 to 100% each time.
Take `CN(C(=O)c1cc(NC(=O)[C@H]2[C@H](c3cc(C(F)(F)F)cc(C(F)(F)F)c3)C2(Cl)Cl)ccc1Cl)c1ccc(F)cc1` (relative stereo) [F85, trans-5-(3-(3,5-Bis(trifluoromethyl)phenyl)-2,2-dichlorocyclopropane-1-carboxamido)-2-chloro-N-(4-fluorophenyl)-N-methylbenzamide]: the “YFM (Biological Results, rating)” value in experiment [1] was “A (80-100)”. In addition, the pest or weed control at 50 µg/cm2 in experiment [2] (setting [4]) and in experiment [3] (setting [5]) was 50 to 100% throughout.
As for `Nc1c(F)ccc(NC(=O)c2cc(NC(=O)[C@H]3[C@H](c4cc(Cl)cc(Cl)c4)C3(Cl)Cl)ccc2Cl)c1F` (relative stereo) [F245, trans-N-(3-Amino-2,4-difluorophenyl)-2-chloro-5-(2,2-dichloro-3-(3,5-dichlorophenyl)cyclopropane-1-carboxamido)benzamide], the “YFM (Biological Results, rating)” value in experiment [1] is “A (80-100)”. Besides, the pest or weed control at 50 µg/cm2 in experiment [2] (setting [4]) and in experiment [3] (setting [5]) was 50 to 100% each time.
For `Nc1cccc(NC(=O)c2cc(NC(=O)[C@H]3[C@H](c4ccc(F)c(Cl)c4)C3(Cl)Cl)ccc2Cl)n1` (relative stereo) [F327, N-(6-Aminopyridin-2-yl)-2-chloro-5-(trans-2,2-dichloro-3-(3-chloro-4-fluorophenyl)cyclopropane-1-carboxamido)benzamide], in experiment [1], the “YFM (Biological Results, rating)” value is “A (80-100)”. In addition, the pest or weed control at 50 µg/cm2 in experiment [2] (setting [4]) and in experiment [3] (setting [5]) was 50 to 100% in each case.
In the case of `O=C(Nc1ccc(F)cc1F)c1cc(NC(=O)C2C(c3cc(F)c(F)c(F)c3)C2(Cl)Cl)ccc1Cl` (stereo not drawn) [F581, 2-Chloro-5-trans-(2,2-dichloro-3-(3,4,5-trifluorophenyl)cyclopropane-1-carboxamido)-N-(2,4-difluorophenyl)benzamide], in experiment [1], the YFM rating entry is “A (80-100)”. For the same compound, the pest or weed control at 50 µg/cm2 in experiment [2] (setting [6]) and in experiment [3] (setting [7]) was 50 to 100% throughout.
On to `CN(C(=O)c1cc(NC(=O)[C@H]2[C@H](c3cccc(C(F)(F)F)c3)C2(Cl)Cl)ccc1Cl)c1ccc(F)cc1` (relative stereo) [F57, trans-2-Chloro-5-(2,2-dichloro-3-(3-(trifluoromethyl)phenyl)cyclopropane-1-carboxamido)-N-(4-fluorophenyl)-N-methylbenzamide], for which the “YFM (Biological Results, rating)” value in experiment [1] is given as “B (More than 0-Less than 80)”. Besides, the pest or weed control at 50 µg/cm2 in experiment [2] (setting [4]) and in experiment [3] (setting [5]) was 50 to 100% each time.
Turning to `O=C(Nc1ccc(F)cc1)c1cc(NC(=O)C2C(c3cc(Cl)cc(Cl)c3)C2(F)Br)ccc1Cl` (stereo not drawn) [PF51, 5-(trans)-2-Bromo-3-(3,5-dichlorophenyl)-2-fluorocyclopropane-1-carboxamido)-2-chloro-N-(4-fluorophenyl)benzamide], in experiment [1], the YFM rating result was “B (More than 0-Less than 80)”. For the same compound, the pest or weed control at 50 µg/cm2 in experiment [2] (setting [6]) and in experiment [3] (setting [7]) was 50 to 100% each time.
On to `C=Cc1ccc(NC(=O)c2cc(NC(=O)[C@H]3[C@H](c4cc(Cl)cc(Cl)c4)C3(Cl)Cl)ccc2Cl)cc1` (relative stereo) [PF16, trans-2-Chloro-5-(2,2-dichloro-3-(3,5-dichlorophenyl)cyclopropane-1-carboxamido)-N-(4-vinylphenyl)benzamide], for which the YFM rating result in experiment [1] is “A (80-100)”. The pest or weed control at 50 µg/cm2 in experiment [2] (setting [6]) and in experiment [3] (setting [7]) was 50 to 100% each time.
Take `O=C(Nc1cc(Cl)cc(Cl)c1)c1cc(NC(=O)[C@H]2[C@H](c3cc(Cl)cc(Cl)c3)C2(Cl)Cl)ccc1Cl` (relative stereo) [PF76, trans-2-Chloro-5-(2,2-dichloro-3-(3,5-dichlorophenyl)cyclopropane-1-carboxamido)-N-(3,5-dichlorophenyl)benzamide]: the YFM rating result in experiment [1] is reported as “A (80-100)”. In addition, the pest or weed control at 50 µg/cm2 in experiment [2] (setting [6]) and in experiment [3] (setting [7]) was 50 to 100% in each case.
On to `Cc1cc(NC(=O)c2cc(NC(=O)[C@H]3[C@H](c4cc(Cl)cc(Cl)c4)C3(Cl)Cl)ccc2Cl)cc(C)c1F` (relative stereo) [PF53, trans-2-Chloro-5-(2,2-dichloro-3-(3,5-dichlorophenyl)cyclopropane-1-carboxamido)-N-(4-fluoro-3,5-dimethylphenyl)benzamide], for which the YFM rating entry in experiment [1] is reported as “A (80-100)”. The pest or weed control at 50 µg/cm2 in experiment [2] (setting [6]) and in experiment [3] (setting [7]) was 50 to 100% in each case.
As to `N#Cc1cc(Cl)cc([C@H]2[C@H](C(=O)Nc3ccc(Cl)c(C(=O)Nc4ncc(F)cc4F)c3)C2(Cl)Cl)c1` (relative stereo) [F342, trans-2-Chloro-5-(2,2-dichloro-3-(3-chloro-5-cyanophenyl)cyclopropane-1-carboxamido)-N-(3,5-difluoropyridin-2-yl)benzamide], the “YFM (Biological Results, rating)” value in experiment [1] is listed as “A (80-100)”. Also, the pest or weed control at 50 µg/cm2 in experiment [2] (setting [4]) and in experiment [3] (setting [5]) was 50 to 100% in each case.
Take `C=Cc1ccc([C@H]2[C@H](C(=O)Nc3ccc(Cl)c(C(=O)Nc4ccc(F)cc4F)c3)C2(Cl)Cl)cc1Cl` (relative stereo) [F319, 2-Chloro-5-(trans-2,2-dichloro-3-(3-chloro-4-vinylphenyl)cyclopropane-1-carboxamido)-N-(2,4-difluorophenyl)benzamide]: in experiment [1], the “YFM (Biological Results, rating)” value is on record as “A (80-100)”. For the same compound, the pest or weed control at 50 µg/cm2 in experiment [2] (setting [4]) and in experiment [3] (setting [5]) was 50 to 100% each time.
Turning to `Nc1c(F)cc(NC(=O)c2cc(NC(=O)[C@H]3[C@H](c4ccc(Cl)c(Cl)c4)C3(Cl)Cl)ccc2Cl)cc1F` [F379, N-(4-Amino-3,5-difluorophenyl)-2-chloro-5-((1R,3R)-2,2-dichloro-3-(3,4-dichlorophenyl)cyclopropane-1-carboxamido)benzamide], the YFM rating entry in experiment [1] is recorded as “A (80-100)”. In addition, the pest or weed control at 50 µg/cm2 in experiment [2] (setting [6]) and in experiment [3] (setting [7]) was 50 to 100% each time.
On to `O=C(Nc1ccc(SC(F)(F)F)cc1)c1cc(NC(=O)[C@H]2[C@H](c3cc(Cl)cc(Cl)c3)C2(Cl)Cl)ccc1Cl` (relative stereo) [PF11, trans-2-Chloro-5-(2,2-dichloro-3-(3,5-dichlorophenyl)cyclopropane-1-carboxamido)-N-(4-((trifluoromethyl)thio)phenyl)benzamide], for which the YFM rating entry in experiment [1] was “B (More than 0-Less than 80)”. Also, the pest or weed control at 50 µg/cm2 in experiment [2] (setting [6]) and in experiment [3] (setting [7]) was 50 to 100% throughout.
As to `CN(C(=O)c1cc(NC(=O)[C@H]2[C@H](c3ccc(Cl)c(Cl)c3)C2(Cl)Cl)ccc1F)c1ccccc1` (relative stereo) [F67, trans-5-(2,2-Dichloro-3-(3,4-dichlorophenyl)cyclopropane-1-carboxamido)-2-fluoro-N-methyl-N-phenylbenzamide], the “YFM (Biological Results, rating)” value in experiment [1] is reported as “B (More than 0-Less than 80)”. In addition, the pest or weed control at 50 µg/cm2 in experiment [2] (setting [4]) and in experiment [3] (setting [5]) was 50 to 100% each time.
As to `CC(=O)c1ccc(NC(=O)c2cc(NC(=O)[C@H]3[C@H](c4cc(Cl)cc(Cl)c4)C3(Cl)Cl)ccc2Cl)c(F)c1` (relative stereo) [PF78, trans-N-(4-acetyl-2-fluorophenyl)-2-chloro-5-(2,2-dichloro-3-(3,5-dichlorophenyl)cyclopropane-1-carboxamido)benzamide], the YFM rating result in experiment [1] was “A (80-100)”. For the same compound, the pest or weed control at 50 µg/cm2 in experiment [2] (setting [6]) and in experiment [3] (setting [7]) was 50 to 100% throughout.
As for `Nc1c(F)cc(F)cc1NC(=O)c1cc(NC(=O)[C@H]2[C@H](c3ccc(Cl)c(Cl)c3)C2(Cl)Cl)ccc1Cl` [F377, N-(2-Amino-3,5-difluorophenyl)-2-chloro-5-((1R,3R)-2,2-dichloro-3-(3,4-dichlorophenyl)cyclopropane-1-carboxamido)benzamide], the YFM rating entry in experiment [1] is recorded as “A (80-100)”. Also, the pest or weed control at 50 µg/cm2 in experiment [2] (setting [6]) and in experiment [3] (setting [7]) was 50 to 100% throughout.
As for `N#Cc1cc(F)ccc1NC(=O)c1cc(NC(=O)[C@H]2[C@H](c3ccc(Cl)c(Cl)c3)C2(Cl)Cl)ccc1Cl` (relative stereo) [F190, trans-2-Chloro-N-(2-cyano-4-fluorophenyl)-5-(2,2-dichloro-3-(3,4-dichlorophenyl)cyclopropane-1-carboxamido)benzamide], the “YFM (Biological Results, rating)” value in experiment [1] was “A (80-100)”. Besides, the pest or weed control at 50 µg/cm2 in experiment [2] (setting [4]) and in experiment [3] (setting [5]) was 50 to 100% each time.

Source of the values: patent US10219516B2, “Molecules having pesticidal utility, and intermediates, compositions, and processes, related thereto” (priority 2015, dated 2019).
